Source: patent US7396837B2, “Antitumoral analogs of lamellarins” (Pharma Mar, S.A.U., priority 2002, dated 2008)

Legend:
Assay type in all cases: cell-based
IGROV = test: SRB colorimetric cell growth inhibition assay, IGROV; details: Homo sapiens, IGROV
Outline: (§1)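 Quantitation uses the sulforhodamine B reaction on cells exposed to sample for the whole assay period; results (mean ± SD, n = 3 wells) yield GI, TGI and LC.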

LNCaP = test: SRB colorimetric cell growth inhibition assay, LNCaP; details: Homo sapiens, LNCaP, LN-caP
Outline: as §1

K-562 = test: SRB colorimetric cell growth inhibition assay, K-562; details: Homo sapiens, K562, K-562
Outline: as §1

PANC-1 = test: SRB colorimetric cell growth inhibition assay, PANC-1; details: Homo sapiens, PANC-1, PANC-1
Outline: as §1

A-549 = test: SRB colorimetric cell growth inhibition assay, A-549; details: Homo sapiens, A549, A-549
Outline: as §1

DU-145 = test: SRB colorimetric cell growth inhibition assay, DU-145; details: Homo sapiens, DU-145, DU-145
Outline: as §1

IGROV-ET = test: SRB colorimetric cell growth inhibition assay, IGROV-ET (ET-743 resistant); details: Homo sapiens, IGROV-ET
Outline: as §1

LoVo = test: SRB colorimetric cell growth inhibition assay, LoVo; details: Homo sapiens, LoVo
Outline: as §1

SK-MEL-28 = test: SRB colorimetric cell growth inhibition assay, SK-MEL-28; details: Homo sapiens, SK-MEL-28, MEL-28
Outline: as §1

H-MEC-1 = test: SRB colorimetric cell growth inhibition assay, H-MEC-1; details: Homo sapiens, HMEC-1, H-MEC-1
Outline: (§2)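 Growth inhibition (GI), total growth inhibition (TGI, cytostatic) and lethal concentration (LC, cytotoxic) come from an SRB-based colorimetric measure of growth and viability. Data are triplicate-well means ± SD.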

[1] = as above; details: human, H-MEC-1 cells; H-MEC-1; cell killing (cytotoxic effect); read-out: LC50 H-MEC-1
Outline: as §2

SKOV-3 = test: SRB colorimetric cell growth inhibition assay, SKOV-3; details: Homo sapiens
Outline: as §2

SK-BR-3 = test: SRB colorimetric cell growth inhibition assay, SK-BR-3; details: Homo sapiens, SK-BR-3, SK-BR-3
Outline: as §1

LoVo-Dox = test: SRB colorimetric cell growth inhibition assay, LoVo-Dox (MDR); details: Homo sapiens, LOVO-DOX
Outline: as §1

HT-29 = test: SRB colorimetric cell growth inhibition assay, HT-29; details: Homo sapiens, HT-29, HT-29
Outline: as §1

COc1cc(-c2c3c4cc(OC)c(O)cc4oc(=O)c3n3ccc4cc(OC)c(OC)cc4c23)ccc1O [Compound 26]
GI50 (IGROV; GI=growth inhibition, read-out: GI50 IGROV): 0.504 µM
CC50 (IGROV; cell killing (cytotoxic effect), read-out: LC50 IGROV): 13 µM
IC (TGI) (IGROV; total growth inhibition (cytostatic effect), read-out: TGI IGROV): 2.3 µM
GI50 (LNCaP; GI=growth inhibition, read-out: GI50 LN-caP): 0.711 µM
CC50 (LNCaP; cell killing (cytotoxic effect), read-out: LC50 LN-caP): 14.7 µM
IC (TGI) (LNCaP; total growth inhibition (cytostatic effect), read-out: TGI LN-caP): 4.3 µM
GI50 (K-562; GI=growth inhibition, read-out: GI50 K-562): 0.785 µM
CC50 (K-562; cell killing (cytotoxic effect), read-out: LC50 K-562): 16.1 µM
IC (TGI) (K-562; total growth inhibition (cytostatic effect), read-out: TGI K-562): 3.41 µM
GI50 (PANC-1; GI=growth inhibition, read-out: GI50 PANC-1): 1.07 µM
CC50 (PANC-1; cell killing (cytotoxic effect), read-out: LC50 PANC-1): 19.5 µM
IC (TGI) (PANC-1; total growth inhibition (cytostatic effect), read-out: TGI PANC-1): 8.8 µM
GI50 (A-549; GI=growth inhibition, read-out: GI50 A-549): 1.11 µM
CC50 (A-549; cell killing (cytotoxic effect), read-out: LC50 A-549): 19.5 µM
IC (TGI) (A-549; total growth inhibition (cytostatic effect), read-out: TGI A-549): 8.1 µM
GI50 (DU-145; GI=growth inhibition, read-out: GI50 DU-145): 0.611 µM
CC50 (DU-145; cell killing (cytotoxic effect), read-out: LC50 DU-145): 19.5 µM
IC (TGI) (DU-145; total growth inhibition (cytostatic effect), read-out: TGI DU-145): 2.94 µM
GI50 (IGROV-ET; GI=growth inhibition, read-out: GI50 IGROV-ET): 0.574 µM
CC50 (IGROV-ET; cell killing (cytotoxic effect), read-out: LC50 IGROV-ET): 19.5 µM
IC (TGI) (IGROV-ET; total growth inhibition (cytostatic effect), read-out: TGI IGROV-ET): 2.08 µM
GI50 (LoVo; GI=growth inhibition, read-out: GI50 LOVO): 1.19 µM
CC50 (LoVo; cell killing (cytotoxic effect), read-out: LC50 LOVO): 19.5 µM
IC (TGI) (LoVo; total growth inhibition (cytostatic effect), read-out: TGI LOVO): 10 µM
GI50 (SK-MEL-28; GI=growth inhibition, read-out: GI50 MEL-28): 2.08 µM
CC50 (SK-MEL-28; cell killing (cytotoxic effect), read-out: LC50 MEL-28): 19.5 µM
IC (TGI) (SK-MEL-28; total growth inhibition (cytostatic effect), read-out: TGI MEL-28): 7.79 µM
GI50 (H-MEC-1; GI=growth inhibition, read-out: GI50 H-MEC-1): 0.798 µM
IC (TGI) (H-MEC-1; total growth inhibition (cytostatic effect), read-out: TGI H-MEC-1): 19.5 µM
LC50 (concentration giving 50% net cell killing) [1]: 19.5 µM
GI50 (SKOV-3; SK-OV-3, SKOV-3, GI=growth inhibition, read-out: GI50 SKOV-3): 0.874 µM
LC50 (concentration causing 50% net cell killing) (SKOV-3; SK-OV-3, SKOV-3, cell killing (cytotoxic effect), read-out: LC50 SKOV-3): 19.5 µM
IC (TGI) (SKOV-3; SK-OV-3, SKOV-3, total growth inhibition (cytostatic effect), read-out: TGI SKOV-3): 5.53 µM
GI50 (SK-BR-3; GI=growth inhibition, read-out: GI50 SK-BR-3): 0.0966 µM
CC50 (SK-BR-3; cell killing (cytotoxic effect), read-out: LC50 SK-BR-3): 13.6 µM
IC (TGI) (SK-BR-3; total growth inhibition (cytostatic effect), read-out: TGI SK-BR-3): 1.09 µM
GI50 (LoVo-Dox; GI=growth inhibition, read-out: GI50 LOVO-DOX): 0.867 µM
CC50 (LoVo-Dox; cell killing (cytotoxic effect), read-out: LC50 LOVO-DOX): 19.5 µM
IC (TGI) (LoVo-Dox; total growth inhibition (cytostatic effect), read-out: TGI LOVO-DOX): 7.63 µM
GI50 (HT-29; GI=growth inhibition, read-out: GI50 HT-29): 9.17 µM
CC50 (HT-29; cell killing (cytotoxic effect), read-out: LC50 HT-29): 19.5 µM
IC (TGI) (HT-29; total growth inhibition (cytostatic effect), read-out: TGI HT-29): 19.5 µM
